Where a name gives a salt, the structure may show the parent alone. Read-outs that look alike come from different tables or passages of the source.
How the values were obtained:
Assay type in all cases: cell-based
S. aureus (CiproS) = test: In vitro MIC, agar dilution; details: Staphylococcus aureus
S. epidermidis (CiproS) = test: In vitro MIC, agar dilution; details: Staphylococcus epidermidis
H. pylori = test: In vitro MIC, agar dilution; details: Helicobacter pylori
P. mirabilis = test: In vitro MIC, agar dilution; details: Proteus mirabilis
Shigella spp. = test: microbe, parasite or virus in culture; details: read-out: MIC Range
M. pneumoniae = test: In vitro MIC, agar dilution; details: Mycoplasmoides pneumoniae; M. pneumoniae, 7 isolates; read-out: MIC Range
Enterococcus spp. (VanR) = test: In vitro MIC, agar dilution; details: Enterococcus spp. (VanR), 21 isolates
H. influenzae = test: In vitro MIC, agar dilution; details: Haemophilus influenzae, H. influenzae, 18 isolates
S. pyogenes = test: In vitro MIC, agar dilution; details: Streptococcus pyogenes
E. faecium (VanS) = test: In vitro MIC, agar dilution; details: Enterococcus faecium
C. difficile = test: In vitro MIC, agar dilution; details: C. difficile
M. catarrhalis = test: In vitro MIC, agar dilution; details: Moraxella catarrhalis
E. faecium (CiproR) = test: In vitro MIC, agar dilution; details: Enterococcus faecium; E. faecium (CiproR), 2 isolates; read-out: MIC Range
E. coli = test: In vitro MIC, agar dilution; details: Escherichia coli, 25 isolates
In short: (§1)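 Agar dilution plates were inoculated with ~10^4 CFU per spot by replicator, using 1:100 dilutions (1:10 for slow growers) and incubated at 35–37 °C for 20–24 h. MIC is the lowest concentration giving no growth, where slight haze or sparse colonies count as none, judged against a compound-free BHI agar control.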

Salmonella spp. = test: In vitro MIC, agar dilution; details: 23 isolates
In short: as §1

S. epidermidis (CiproR) = test: In vitro MIC, agar dilution; details: Staphylococcus epidermidis
M. avium = test: In vitro MIC, agar dilution; details: Mycobacterium avium
B. fragilis = test: In vitro MIC, agar dilution
S. aureus (CiproR) = test: In vitro MIC, agar dilution; details: Staphylococcus aureus
Klebsiella spp. = test: In vitro MIC, agar dilution
C. freundii = test: In vitro MIC, agar dilution; details: Citrobacter freundii
P. aeruginosa (CiproR) = test: In vitro MIC, agar dilution
Legionella spp. = test: microbe, parasite or virus in culture; details: Legionella
E. faecalis (VanS) = test: In vitro MIC, agar dilution; details: Enterococcus faecalis
C. perfringens = test: microbe, parasite or virus in culture; details: Clostridium perfringens
E. faecium (CiproS) = test: In vitro MIC, agar dilution; details: Enterococcus faecium
Providencia spp. = test: In vitro MIC, agar dilution
S. pneumoniae (PenR) = test: In vitro MIC, agar dilution; details: Streptococcus pneumoniae

Q: Which results are given for `CN[C@@H]1CN(c2c(F)cn3c(=O)c(C(=O)O)cc(C4CC4)c3c2C)CC12CC2` [Example 1, 1-cyclopropyl-8-(7(S)-N-methylamino-5-azaspiro[2.4]heptyl)-7-fluoro-9-methyl-4-oxo-4H-guinolizine-3-carboxylic acid hydrochloride]?
A: MIC90 (S. aureus (CiproS)): 0.03 µg/mL; MIC50 (S. aureus (CiproS); S. aureus (CiproS), 21 isolates, read-out: MIC50): 0.015 µg/mL; MIC (S. aureus (CiproS); S. aureus (CiproS), 21 isolates, read-out: MIC Range): 0.015 to 0.03 µg/mL; MIC90 (S. epidermidis (CiproS)): 0.03 µg/mL; MIC50 (S. epidermidis (CiproS); S. epidermidis (CiproS), 23 isolates, read-out: MIC50): 0.015 µg/mL; MIC (S. epidermidis (CiproS); S. epidermidis (CiproS), 23 isolates, read-out: MIC Range): 0.015 to 0.03 µg/mL; MIC50 (H. pylori): 0.03 µg/mL; MIC90 (H. pylori): 0.03 µg/mL; MIC (H. pylori; H. pylori, 17 isolates, read-out: MIC Range): 0.008 to 0.03 µg/mL; MIC90 (P. mirabilis): 0.12 µg/mL; MIC (P. mirabilis; read-out: MIC Range): 0.03 to 0.25 µg/mL; MIC50 (P. mirabilis; P. mirabilis, 20 isolates, read-out: MIC50): 0.12 µg/mL; MIC (Shigella spp.): 0.002 to 0.15 µg/mL; MIC (M. pneumoniae): 0.015 to 0.03 µg/mL; MIC50 (Enterococcus spp. (VanR); read-out: MIC50): 0.5 µg/mL; MIC90 (Enterococcus spp. (VanR); read-out: MIC90): 1 µg/mL; MIC (Enterococcus spp. (VanR); read-out: MIC Range): 0.06 to 4 µg/mL; MIC50 (H. influenzae; read-out: MIC50): 0.004 µg/mL; MIC90 (H. influenzae; read-out: MIC90): 0.008 µg/mL; MIC (H. influenzae; read-out: MIC Range): 0.002 to 0.015 µg/mL; MIC50 (S. pyogenes): 0.03 µg/mL; MIC90 (S. pyogenes): 0.06 µg/mL; MIC (S. pyogenes; S. pyogenes, 21 isolates, read-out: MIC Range): 0.03 to 0.06 µg/mL; MIC (E. faecium (VanS); read-out: MIC Range): 0.12 to 1 µg/mL; MIC50 (E. faecium (VanS); E. faecium (VanS), 11 isolates, read-out: MIC50): 0.5 µg/mL; MIC90 (E. faecium (VanS); E. faecium (VanS), 11 isolates, read-out: MIC90): 1 µg/mL; MIC90 (C. difficile; 10 isolates): 0.5 µg/mL; MIC50 (C. difficile; Clostridioides difficile, 10 isolates, read-out: MIC50): 0.5 µg/mL; MIC (C. difficile; Clostridioides difficile, 10 isolates, read-out: MIC Range): 0.5 µg/mL; MIC90 (C. difficile; Clostridioides difficile, read-out: MIC90): 0.5 µg/mL; MIC90 (M. catarrhalis): 0.03 µg/mL; MIC50 (M. catarrhalis; M. catarrhalis, 18 isolates, read-out: MIC50): 0.015 µg/mL; MIC (M. catarrhalis; M. catarrhalis, 18 isolates, read-out: MIC Range): 0.008 to 0.03 µg/mL; MIC (E. faecium (CiproR)): 0.5 to 4 µg/mL; MIC (E. coli): 0.004 to 0.015 µg/mL; MIC50 (E. coli; read-out: MIC50): 0.015 µg/mL; MIC90 (E. coli; read-out: MIC90): 0.015 µg/mL; MIC (Salmonella spp.): 0.004 to 0.12 µg/mL; MIC50 (Salmonella spp.; read-out: MIC50): 0.03 µg/mL; MIC90 (Salmonella spp.; read-out: MIC90): 0.03 µg/mL; MIC90 (S. epidermidis (CiproR)): 0.5 µg/mL; MIC (S. epidermidis (CiproR); read-out: MIC Range): 0.12 to 2 µg/mL; MIC50 (S. epidermidis (CiproR); S. epidermidis (CiproR), 11 isolates, read-out: MIC50): 0.25 µg/mL; MIC (M. avium; read-out: MIC Range): 0.25 to 8 µg/mL; MIC50 (M. avium; M. avium, 20 isolates, read-out: MIC50): 1 µg/mL; MIC90 (M. avium; M. avium, 20 isolates, read-out: MIC90): 4 µg/mL; MIC90 (B. fragilis; B. fragilis, 18 isolates): 0.12 µg/mL; MIC (B. fragilis; Bacteroides fragilis, read-out: MIC Range): 0.06 to 0.12 µg/mL; MIC50 (B. fragilis; Bacteroides fragilis, B. fragilis, 18 isolates, read-out: MIC50): 0.06 µg/mL; MIC90 (B. fragilis; Bacteroides fragilis, B. fragilis, read-out: MIC90): 0.12 µg/mL; MIC90 (S. aureus (CiproR)): 0.5 µg/mL; MIC50 (S. aureus (CiproR); S. aureus (CiproR), 25 isolates, read-out: MIC50): 0.5 µg/mL; MIC (S. aureus (CiproR); S. aureus (CiproR), 25 isolates, read-out: MIC Range): 0.015 to 0.5 µg/mL; MIC90 (Klebsiella spp.; Klebsiella): 0.03 µg/mL; MIC50 (Klebsiella spp.; Klebsiella spp., 29 isolates, read-out: MIC50): 0.015 µg/mL; MIC (Klebsiella spp.; Klebsiella spp., 29 isolates, read-out: MIC Range): 0.002 to 0.12 µg/mL; MIC50 (C. freundii): 0.03 µg/mL; MIC90 (C. freundii): 0.25 µg/mL; MIC (C. freundii; C. freundii, 20 isolates, read-out: MIC Range): 0.015 to 0.25 µg/mL; MIC50 (P. aeruginosa (CiproR); Pseudomonas aeruginosa, P. aeruginosa (CiproR), 20 isolates, read-out: MIC50): 8 µg/mL; MIC90 (P. aeruginosa (CiproR); Pseudomonas aeruginosa, P. aeruginosa (CiproR), 20 isolates, read-out: MIC90): 16 µg/mL; MIC (P. aeruginosa (CiproR); Pseudomonas aeruginosa, P. aeruginosa (CiproR), 20 isolates, read-out: MIC Range): 4 to 32 µg/mL; MIC90 (P. aeruginosa (CiproR); ciprofloxacin resistant P. aeruginosa strains): 16 (g/mL; MIC50 (Legionella spp.): 0.12 µg/mL; MIC90 (Legionella spp.): 0.25 µg/mL; MIC (Legionella spp.; read-out: MIC Range): 0.12 to 0.25 µg/mL; MIC90 (E. faecalis (VanS)): 0.25 µg/mL; MIC (E. faecalis (VanS); read-out: MIC Range): 0.12 to 0.25 µg/mL; MIC50 (E. faecalis (VanS); E. faecalis (VanS), 17 isolates, read-out: MIC50): 0.12 µg/mL; MIC50 (C. perfringens): 0.12 µg/mL; MIC90 (C. perfringens): 0.12 µg/mL; MIC90 (C. perfringens; C. perfringens, 13 isolates): 0.25 µg/mL; MIC (C. perfringens; read-out: MIC Range): 0.12 to 0.25 µg/mL; MIC (E. faecium (CiproS); read-out: MIC Range): 0.25 to 1 µg/mL; MIC50 (E. faecium (CiproS); E. faecium (CiproS), 16 isolates, read-out: MIC50): 0.5 µg/mL; MIC90 (E. faecium (CiproS); E. faecium (CiproS), 16 isolates, read-out: MIC90): 1 µg/mL; MIC90 (Providencia spp.; Providencia): 0.25 µg/mL; MIC50 (Providencia spp.; Providencia spp., 28 isolates, read-out: MIC50): 0.06 µg/mL; MIC (Providencia spp.; Providencia spp., 28 isolates, read-out: MIC Range): 0.015 to 1 µg/mL; MIC90 (S. pneumoniae (PenR)): 0.06 µg/mL; MIC50 (S. pneumoniae (PenR); S. pneumoniae (PenR), 25 isolates, read-out: MIC50): 0.06 µg/mL; MIC (S. pneumoniae (PenR); S. pneumoniae (PenR), 25 isolates, read-out: MIC Range): 0.03 to 0.06 µg/mL

— patent US5977133A, “Pyridone antibiotic with improved safety profile” (priority 1998, dated 1999)
